# Experimental data as given in patent publication US9169254B2, “Spiroimidazolone derivative” (Chugai Seiyaku Kabushiki Kaisha, priority 2009, dated 2015).
# Target: T1, human PTH1 receptor (Homo sapiens, UniProt Q03431)
# T1 sequence (Q03431 27-593): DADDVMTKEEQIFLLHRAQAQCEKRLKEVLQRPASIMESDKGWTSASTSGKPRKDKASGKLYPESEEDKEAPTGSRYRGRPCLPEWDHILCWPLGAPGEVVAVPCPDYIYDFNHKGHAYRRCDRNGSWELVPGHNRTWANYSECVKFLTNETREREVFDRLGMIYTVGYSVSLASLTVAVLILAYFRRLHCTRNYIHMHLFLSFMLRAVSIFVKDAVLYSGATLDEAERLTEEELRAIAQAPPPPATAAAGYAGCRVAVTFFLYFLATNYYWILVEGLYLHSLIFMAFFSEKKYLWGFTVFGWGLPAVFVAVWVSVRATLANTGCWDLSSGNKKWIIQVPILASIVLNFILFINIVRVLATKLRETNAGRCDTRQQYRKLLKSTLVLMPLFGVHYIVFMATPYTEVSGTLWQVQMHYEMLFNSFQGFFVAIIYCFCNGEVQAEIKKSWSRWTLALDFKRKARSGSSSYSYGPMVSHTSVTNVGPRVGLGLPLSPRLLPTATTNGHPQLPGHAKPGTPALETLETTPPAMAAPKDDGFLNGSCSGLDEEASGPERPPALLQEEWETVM
# Experiment: In vitro cAMP signal activity in HKRK-B7 cells (LLC-PK1 cells overexpressing the human PTH1 receptor)
# Format: cell-based
# Conditions: HKRK-B7 cells; compound at 1×10^−3 M; cAMP produced as percentage of that produced by hPTH(1-34) at 100 nM
row,SMILES,cAMP production activity (%)
1,"CCCCCCCCCC1=NC2(CCN(S(=O)(=O)/C=C/c3ccc(N(CCOCCO)C(C)=O)cc3C)CC2)C(=O)N1 [Compound 700, N-[2-(2-Hydroxy-ethoxy)-ethyl]-N-{3-methyl-4-[(E)-2-(2-nonyl-4-oxo-1,3,8-triaza-spiro[4.5]dec-1-ene-8-sulfonyl)-vinyl]-phenyl}-acetamide]",121%
2,"CCCCCCCCCC1=NC2(CCN(S(=O)(=O)/C=C/c3c(C)cc(N(CCO)C(C)=O)cc3C)CC2)C(=O)N1 [Compound 701, N-{3,5-dimethyl-4-[(E)-2-(2-nonyl-4-oxo-1,3,8-triaza-spiro[4.5]dec-1-ene-8-sulfonyl)-vinyl]-phenyl}-N-(2-hydroxy-ethyl)-acetamide]",140%
3,"O=C1NC(C2CCCCC2)=NC12CCN(S(=O)(=O)/C=C/c1ccc3c(ccn3C[C@H](O)CO)c1)CC2 [Compound 702, 2-Cyclohexyl-8-{(E)-2-[1-((S)-2,3-dihydroxy-propyl)-1H-indol-5-yl]-ethenesulfonyl}-1,3,8-triaza-spiro[4.5]dec-1-en-4-one]",84%
4,"O=C1NC(C2CCC(CCC(F)(F)F)CC2)=NC12CCN(S(=O)(=O)/C=C/c1cccc3c1ccn3CCOC[C@@H](O)CO)CC2 (stereo partly drawn) [Compound 704, 8-((E)-2-{1-[2-((S)-2,3-Dihydroxy-propoxy)-ethyl]-1H-indol-4-yl}-ethenesulfonyl)-2-[4-(3,3,3-trifluoro-propyl)-cyclohexyl]-1,3,8-triaza-spiro[4.5]dec-1-en-4-one]",68%
5,"Cc1cc(OC[C@H](O)[C@@H](O)CO)cc(C)c1/C=C/S(=O)(=O)N1CCC2(CC1)N=C(C1CCC(CCC(F)(F)F)CC1)NC2=O (stereo partly drawn) [Compound 705, 8-{(E)-2-[2,6-dimethyl-4-((2S,3S)-2,3,4-trihydroxy-butoxy)-phenyl]-ethenesulfonyl}-2-[4-(3,3,3-trifluoro-propyl)-cyclohexyl]-1,3,8-triaza-spiro[4.5]dec-1-en-4-one]",76%
6,"O=C1NC(C2CCC(CCC(F)(F)F)CC2)=NC12CCN(S(=O)(=O)/C=C/c1cccc3c1ccn3CCOC[C@H](O)[C@@H](O)CO)CC2 (stereo partly drawn) [Compound 706, 2-[4-(3,3,3-trifluoro-propyl)-cyclohexyl]-8-((E)-2-{1-[2-((2S,3S)-2,3,4-trihydroxy-butoxy)-ethyl]-1H-indol-4-yl}-ethenesulfonyl)-1,3,8-triaza-spiro[4.5]dec-1-en-4-one]",90%
7,"CC(=O)N(C[C@H](O)CO)c1cc(C)c(/C=C/S(=O)(=O)N2CCC3(CC2)N=C(CCCCCCCCC(F)(F)F)NC3=O)c(C)c1 [Compound 707, N—((S)-2,3-Dihydroxy-propyl)-N-(3,5-dimethyl-4-{(E)-2-[4-oxo-2-(9,9,9-trifluoro-nonyl)-1,3,8-triaza-spiro[4.5]dec-1-ene-8-sulfonyl]-vinyl}-phenyl)-acetamide]",124%
8,"Cc1cc(CN(CCO)C(=O)OC(C)(C)C)ccc1/C=C/S(=O)(=O)N1CCC2(CC1)N=C(C1CCCCC1)NC2=O [Compound 708, {4-[(E)-2-(2-Cyclohexyl-4-oxo-1,3,8-triaza-spiro[4.5]dec-1-ene-8-sulfonyl)-vinyl]-3-methyl-benzyl}-(2-hydroxy-ethyl)-carbamic acid tert-butyl ester]",38%
9,"CC(=O)N(c1cc(C)c(/C=C/S(=O)(=O)N2CCC3(CC2)N=C(C2CCCCC2)NC3=O)c(C)c1)C1CCC(O)CC1 (stereo not shown) [Compound 709, N-{4-[(E)-2-(2-cyclohexyl-4-oxo-1,3,8-triaza-spiro[4.5]dec-1-ene-8-sulfonyl)-vinyl]-3,5-dimethyl-phenyl}-N-(4-hydroxy-cyclohexyl)-acetamide]",58%
10,"Cc1cc(N2C(=O)CC[C@@H]2COCCO)cc(C)c1/C=C/S(=O)(=O)N1CCC2(CC1)N=C(C1CCCCC1)NC2=O [Compound 710, 2-cyclohexyl-8-((E)-2-{4-[(R)-2-(2-hydroxy-ethoxymethyl)-5-oxo-pyrrolidin-1-yl]-2,6-dimethyl-phenyl}-ethenesulfonyl)-1,3,8-triaza-spiro[4.5]dec-1-en-4-one]",76%
11,"Cc1cc(N(CCO)C(=O)C(C)C)ccc1/C=C/S(=O)(=O)N1CCC2(CC1)N=C(c1cccc(OC(F)(F)F)c1)NC2=O [Compound 711, N-(2-Hydroxy-ethyl)-N-(3-methyl-4-{(E)-2-[4-oxo-2-(3-trifluoromethoxy-phenyl)-1,3,8-triaza-spiro[4.5]dec-1-ene-8-sulfonyl]-vinyl}-phenyl)-isobutylamide]",64%
12,"Cc1cc(N2C(=O)C(C)(C)C[C@@H]2CO)cc(C)c1/C=C/S(=O)(=O)N1CCC2(CC1)N=C(c1cccc(OC(F)(F)F)c1)NC2=O [Compound 712, 8-{(E)-2-[4-((R)-5-hydroxymethyl-3,3-dimethyl-2-oxo-pyrrolidin-1-yl)-2,6-dimethyl-phenyl]-ethenesulfonyl}-2-(3-trifluoromethoxy-phenyl)-1,3,8-triaza-spiro[4.5]dec-1-en-4-one]",16%
13,"Cc1cc(N2C(=O)C(C)C[C@@H]2CO)cc(C)c1/C=C/S(=O)(=O)N1CCC2(CC1)N=C(c1cccc(OC(F)(F)F)c1)NC2=O (stereo partly drawn) [Compound 713, 8-{(E)-2-[4-((R)-5-hydroxymethyl-3-methyl-2-oxo-pyrrolidin-1-yl)-2,6-dimethyl-phenyl]-ethenesulfonyl}-2-(3-trifluoromethoxy-phenyl)-1,3,8-triaza-spiro[4.5]dec-1-en-4-one]",55%
14,"Cc1cc(N2C(=O)N(CCO)C(C)(C)C2=O)cc(C)c1/C=C/S(=O)(=O)N1CCC2(CC1)N=C(c1cccc(OC(F)(F)F)c1)NC2=O [Compound 714, 3-(3,5-dimethyl-4-{(E)-2-[4-oxo-2-(3-trifluoromethoxy-phenyl)-1,3,8-triaza-spiro[4.5]dec-1-ene-8-sulfonyl]-vinyl}-phenyl)-1-(2-hydroxy-ethyl)-5,5-dimethyl-imidazolidine-2,4-dione]",36%
15,"Cc1cc(N(C2CCC(O)CC2)S(C)(=O)=O)cc(C)c1/C=C/S(=O)(=O)N1CCC2(CC1)N=C(c1cccc(OC(F)(F)F)c1)NC2=O (stereo not shown) [Compound 715, N-(3,5-dimethyl-4-{(E)-2-[4-oxo-2-(3-trifluoromethoxy-phenyl)-1,3,8-triaza-spiro[4.5]dec-1-ene-8-sulfonyl]-vinyl}-phenyl)-N-(4-hydroxy-cyclohexyl)-methane sulfonamide]",20%
16,"CCCCC1CCC(C2=NC3(CCN(S(=O)(=O)/C=C/c4c(C)cc(N(CCOCCO)C(C)=O)cc4C)CC3)C(=O)N2)CC1 (stereo not shown) [Compound 716, N-(4-{(E)-2-[2-(4-Butyl-cyclohexyl)-4-oxo-1,3,8-triaza-spiro[4.5]dec-1-ene-8-sulfonyl]-vinyl}-3,5-dimethyl-phenyl)-N-[2-(2-hydroxy-ethoxy)-ethyl]-acetamide]",62%
17,"CC(=O)N(CCO)c1cc(C)c(/C=C/S(=O)(=O)N2CCC3(CC2)N=C(c2cccc(OC(F)(F)F)c2)NC3=O)cc1F [Compound 717, N-(2-Fluoro-5-methyl-4-{(E)-2-[4-oxo-2-(3-trifluoromethoxy-phenyl)-1,3,8-triaza-spiro[4.5]dec-1-ene-8-sulfonyl]-vinyl}-phenyl)-N-(2-hydroxy-ethyl)-acetamide]",111%
18,"CC(=O)N(CCO)c1cc(C)c(/C=C/S(=O)(=O)N2CCC3(CC2)N=C(c2ccc(F)c(C(F)(F)F)c2)NC3=O)c(C)c1 [Compound 718, N-(4-{(E)-2-[2-(4-Fluoro-3-trifluoromethyl-phenyl)-4-oxo-1,3,8-triaza-spiro[4.5]dec-1-ene-8-sulfonyl]-vinyl}-3,5-dimethyl-phenyl)-N-(2-hydroxy-ethyl)-acetamide]",74%
19,"Cc1cc(N(CCO)S(C)(=O)=O)ccc1/C=C/S(=O)(=O)N1CCC2(CC1)N=C(c1cccc(OC(F)(F)F)c1)NC2=O [Compound 719, N-(2-Hydroxy-ethyl)-N-(3-methyl-4-{(E)-2-[4-oxo-2-(3-trifluoromethoxy-phenyl)-1,3,8-triaza-spiro[4.5]dec-1-ene-8-sulfonyl]-vinyl}-phenyl)-methanesulfonamide]",77%
20,"CCCCCCCCCC1=NC2(CCN(S(=O)(=O)CCc3ccc(N(CCO)S(C)(=O)=O)cc3C)CC2)C(=O)N1 [Compound 720, N-(2-Hydroxy-ethyl)-N-{3-methyl-4-[2-(2-nonyl-4-oxo-1,3,8-triaza-spiro[4.5]dec-1-ene-8-sulfonyl)-ethyl]-phenyl}-methanesulfonamide]",82%
21,"CC(=O)N(CCO)c1ccc(CCS(=O)(=O)N2CCC3(CC2)N=C(c2ccc(F)c(C(F)(F)F)c2)NC3=O)c(C)c1 [Compound 721, N-(4-{2-[2-(4-Fluoro-3-trifluoromethyl-phenyl)-4-oxo-1,3,8-triaza-spiro[4.5]dec-1-ene-8-sulfonyl]-ethyl}-3-methyl-phenyl)-N-(2-hydroxy-ethyl)-acetamide]",92%
22,"Cc1cc(N(CCO)C(=O)CO)ccc1/C=C/S(=O)(=O)N1CCC2(CC1)N=C(c1cccc(OC(F)(F)F)c1)NC2=O [Compound 722, 2-Hydroxy-N-(2-hydroxy-ethyl)-N-(3-methyl-4-{(E)-2-[4-oxo-2-(3-trifluoromethoxy-phenyl)-1,3,8-triaza-spiro[4.5]dec-1-ene-8-sulfonyl]-vinyl}-phenyl)-acetamide]",60%
